Data set [1] has as its system Caco-2 cell xenograft. Briefly: Dosing schedule time-course, Caco-2 xenograft, 5-FU (Example 7). It is filed as in vivo, nude mice. To be noted: free drug, 1×10^6 ng/dose, intravenous. As to the method:
The experiment described in example 6 was repeated with the same controls and experimental groups except that G2 received free 5-FU (1×10^6 ng/dose) and in G3, G4 and G5, the second treatment was carried out with ^EGFRminicells5-FU. Minicells were administered at 1×10^9 per dose and each dose carried ˜80 ng 5-FU, i.e., ˜12,500-fold lower than free drug administration in G2 mice.

In data set [2] the test system is human breast adenocarcinoma cell line, MDA-MB-468. Briefly: Doxorubicin sensitivity of MDA-MB-468 cell line. It counts as cell-based. To be noted: parental MDA-MB-468.
The subject of data set [3] is Caco-2 cell xenograft. Briefly: Dosing schedule time-course, Caco-2 xenograft, irinotecan (Example 6). The conditions noted are these: free drug, ~2.4×10^5 ng/dose, intravenous. It counts as in vivo, nude mice. The method, then:
Allowing sufficient time for efficient delivery of shRNA to the tumor cells before the receptor-targeted, drug-packaged minicells are administered improves the results. A time-course experiment was performed, wherein ^EGFRminicellsshRNA-MDR-1 were administered intravenously in nude mice carrying Caco-2 cell xenograft. In separate groups (n=11 mice per group), mice were given ^EGFRminicellsIrino either at 96 hr (G3), 120 hr (G4) or 144 hr (G5) after the ^EGFRminicellsshRNA-MDR-1 treatment. G1 and G2 were tumor only and free irinotecan (˜2.4×10^5 ng/dose) controls. The minicells were administered at 5×10^8 per dose and each dose carried ˜80 ng of irinotecan packaged in minicells, which is a 3,000-fold lower dose than that administered as free drug.

The subject of data set [4] is Human colon cancer cell line Caco-2. Briefly: MTT cell proliferation assay, reversal of drug resistance in-vitro. To be noted: single treatment; 72 hrs; free drugs 25 μM; MTT read at 490 nm. In general terms: Tetrazolium assays rely on reduction of a dye to a coloured formazan, in cell work by metabolically active cells.
Procedure: Caco-2 cells were seeded at 3×10^6 cells/flask in Minimum Essential Medium with 10% cosmic calf serum and incubated for 3 hours at 37° C., 5% CO2.
The cells were treated with (a) ^EGFRminicellsshRNA-MDR-1, and (b) ^EGFRminicellsshRNA-nonsense. […] Minicells were added at a concentration of 10^10 per flask and all flasks were incubated for 72 hrs. The cells from each treatment were trypsinised and seeded at 1×10^4 cells/ml/well in 24-well plates and were incubated for 3 hrs at 37° C., 5% CO2. The control untreated cells were then incubated with (6 wells/treatment) (a) free irinotecan (25 μM), (b) free 5-FU (25 μM), (c) ^EGFRminicellsIrino, and (d) ^EGFRminicells5-FU.
The ^EGFRminicellsshRNA-MDR-1 treated Caco-2 cells were incubated with (6 wells/treatment) (a) ^CMV minicells5-FU (non-specifically targeted since the bispecific antibody is targeted to a surface protein on cytomegalovirus), (b) free irinotecan, (c) free 5-FU EGFR, (d) ^EGFRminicellsIrino, and (e) ^EGFRminicells5-FU. […]
All cells were incubated for a further 72 hrs followed by the colorimetric MTT cell proliferation assay (Cory et al., 1991) using the CellTiter 96 AQueous One Solution Cell Proliferation Assay (Promega Corp., Madison, Wis., USA), according to the manufacturer's instructions. The colorimetric measurements were read at 490 nm.

In the case of `O=c1[nH]cc(F)c(=O)[nH]1` [5-FU, 5-fluorouracil], in data set [1], the “effect on tumor growth (FIG. 6)” value is “no effect”. `COc1cccc2c1C(=O)c1c(O)c3c(c(O)c1C2=O)C[C@@](O)(C(=O)CO)C[C@@H]3O[C@H]1C[C@H](N)[C@H](O)[C@H](C)O1` [doxorubicin]: the “sensitivity of cell line to drug” value in data set [2] is given as “highly sensitive”. Regarding `CCc1c2c(nc3ccc(OC(=O)N4CCC(N5CCCCC5)CC4)cc13)-c1cc3c(c(=O)n1C2)COC(=O)[C@]3(O)CC` [irinotecan], the “effect on tumor growth (FIG. 5)” value in data set [3] was “no effect”. Besides, in data set [4], the “resistance of Caco-2 cells to treatment (cell viability, FIG. 1)” value is “highly resistant”.
